According to publication PMC9964244, “Effects of Dimerization, Dendrimerization, and Chirality in p-BthTX-I Peptide Analogs on the Antibacterial Activity and Enzymatic Inhibition of the SARS-CoV-2 PL^pro Protein” (Pharmaceutics, 2023):
Values after ≈ are worked out from the molar mass of the structure shown. Values joined by “and” are separate entries in the source; they are usually repeats but may differ in a detail not shown here. Equal values may be shown once. Bridge positions count the residues as written; N and C are the ends. Peptide text beside a SMILES is read from it. I, II: the chains in the order shown.

Legend:
[1] = test system: erythrocytes; design: method as in earlier work; conditions: at a concentration of 512 µg/mL; ref 17 (Santos-Filho et al., 2021); cited from earlier work
[2] = test system: E. faecalis ATCC 29212; assay: MIC/MBC, broth microdilution and subculture on CA-MH agar; format: cell-based; design: key to Act (antibacterial activity): Bc, bactericidal; Bs, bacteriostatic
Procedure: (§1) Bacterial isolates from the American Type Culture Collection (ATCC) were obtained from the Collection of Reference Bacteria on Health Surveillance, Oswaldo Cruz Foundation (FIOCRUZ) after phenotypic and molecular quality control and were registered at SISGEN under the number ADB556B. The minimum inhibitory concentration (MIC) was determined as previously described by Santos-Filho et al., 2021 [17], using the broth microdilution method. The MIC was the lowest concentration that inhibited microbial growth. […] MBC was defined as the lowest peptide concentration with no visible growth on the plate. […] The assay was performed in triplicate, and the values represent the mode of the obtained results.
(§2) Thus, to assess the relevance of the antimicrobial effect of p-Bth analogs, their Minimum Inhibitory Concentration (MIC) and Minimum Bactericidal Concentration (MBC) were analyzed against relevant bacteria. The evaluated strains were the Gram-positives: S. aureus ATCC 25923, S. epidermidis ATCC 35984, E. faecalis ATCC 29212, and E. faecium ATCC […] (Table 1); and the Gram-negatives: K. pneumoniae ATCC 700603, E. coli ATCC 25922, A. baumannii ATCC 19606, and P. aeruginosa ATCC 27853 (Table 2).

[3] = test system: S. epidermidis ATCC 35984; assay: as above; format: cell-based; design: key to Act (antibacterial activity): Bc, bactericidal; Bs, bacteriostatic
Procedure: as §1, §2

[4] = test system: E. coli ATCC 25922; assay: as above; format: cell-based; design: key to Act (antibacterial activity): Bc, bactericidal; Bs, bacteriostatic
Procedure: as §1, §2

[5] = test system: A. baumannii ATCC 19606; assay: as above; format: cell-based, Acinetobacter baumannii; conditions: triplicate, mode
Procedure: as §1, §2

[6] = test system: S. aureus ATCC 25923; assay: as above; format: cell-based, Staphylococcus aureus; design: key to Act (antibacterial activity): Bc, bactericidal; Bs, bacteriostatic
Procedure: as §1, §2

[7] = test system: P. aeruginosa ATCC 27853; assay: as above; format: cell-based, Pseudomonas aeruginosa; conditions: broth microdilution, triplicate, mode
Procedure: as §1, §2

[8] = test system: SARS-CoV-2; conditions: Vero cells; cited from earlier work
Source text: In December 2019, the first case of viral infection with a new coronavirus was reported in China, which was later named severe acute respiratory syndrome coronavirus 2 (SARS-CoV-2), and the disease caused by this was named coronavirus-2019 or COVID-19 by the WHO. This disease has taken on great proportions, causing a pandemic scenario and great global concern. Even with the improvements in disease control, there is still a need for new, specific antiviral therapeutic options. As antimicrobial peptides also have antiviral action, the L-dimer, D-dimer and L-tetramer, in addition to ...

[9] = test system: E. faecium ATCC 700221; assay: MIC/MBC, broth microdilution and subculture on CA-MH agar; format: cell-based, Enterococcus faecium; design: key to Act (antibacterial activity): Bc, bactericidal; Bs, bacteriostatic
Procedure: as §1, §2

[10] = Carboxyfluorescein leakage, vesicle permeabilization; conditions: 80% POPE / 20% POPG vesicles; peptide 50 µM
Procedure: The permeabilization of lipid vesicles containing carboxyfluorescein was carried out using a spectrofluorometer model Fluorolog-3 FL3-122 from Horiba Jobin Yvon (Newark, NJ, USA) (dimers and tetramers) or in a spectrofluorometer model RF-1501 Shimadzu (Kyoto, Japan) (monomer). For RF-1501, the quantification of the fluorescence intensity was performed every 20 s. Two vesicle compositions were used: (1) 80% 1-palmitoyl-2-oleoyl-sn-glycero-3-phosphoethanolamine (POPE) and 20% 1-palmitoyl-2-oleoyl-sn-glycero- 3-phospho-(10-rac-glycerol) (POPG); and (2) 95% 1-palmitoyl-2-oleoyl-sn-glycero-3-phosphocholine (POPC) and 5% POPG. The percentage of leakage was obtained through the following equation:% release = (Fmeasured − Finitial)/(Ffinal − Finitial) × 100, where Ffinal is the average fluorescence value obtained after the addition of Triton, Finitial is the average of the initial values of the run before the addition of the peptide, and Fmeasured are the fluorescence values obtained at each point of the experiment.
Here, we evaluated two systems of membrane mimetics, including vesicles with a composition of 80% POPE and 20% POPG, and another with 95% POPC and 5% POPG. The first is widely used as a model of bacterial membranes, specifically of E. coli membrane. Membranes constituting POPC and POPG were used to mimic mammalian membranes due to the presence of choline-containing lipids in animal membranes.

[11] = biological target: T1, SARS-CoV-2 PL^pro (Severe acute respiratory syndrome coronavirus 2, UniProt P0DTD1); conditions: PL^pro from SARS-CoV-2, ref 19 (Freire et al., 2021), cited from earlier work
T1 construct: made in house
Procedure: Table 3 PL^pro activity by peptide analogs of p-BThTX-I at the concentration of 10 μM and IC50 values. Representative concentration–response inhibition curves against PL^pro from SARS-CoV-2 are presented in the Supplementary Material (Figure S7). | column: Inhibition (%) at 10 µM; IC50 μM

[12] = test system: K. pneumoniae ATCC 700603; assay: MIC/MBC, broth microdilution and subculture on CA-MH agar; format: cell-based, Klebsiella pneumoniae; conditions: broth microdilution, triplicate, mode
Procedure: as §1, §2

[13] = MBC/MIC ratio >4 suggests bacteriostatic
[14] = broth microdilution, triplicate, mode
[15] = subculture on CA-MH agar, 37 °C, 24 h, triplicate, mode

**Q.** For CC(C)C[C@H](NC(=O)[C@H](Cc1c[nH]cn1)NC(=O)[C@H](Cc1ccc(O)cc1)NC(=O)[C@H](CCCNC(=N)N)NC(=O)[C@H](Cc1ccc(O)cc1)NC(=O)[C@H](CCCCN)NC(=O)[C@@H](N)CCCCN)C(=O)N[C@@H](CCCCN)C(=O)N1CCC[C@H]1C(=O)N[C@@H](Cc1ccccc1)C(=O)NCCCC[C@H](NC(=O)[C@H](Cc1ccccc1)NC(=O)[C@@H]1CCCN1C(=O)[C@H](CCCCN)NC(=O)[C@H](CC(C)C)NC(=O)[C@H](Cc1c[nH]cn1)NC(=O)[C@H](Cc1ccc(O)cc1)NC(=O)[C@H](CCCNC(=N)N)NC(=O)[C@H](Cc1ccc(O)cc1)NC(=O)[C@H](CCCCN)NC(=O)[C@@H](N)CCCCN)C(N)=O [L-dimer, [des-Cys^11,Lys^12,Lys^13-(p-BthTX-I)2K]] (I: H-KKYRYHLKPFK-NH2 / II: H-KKYRYHLKPF; amide I:11-II:C; N-terminus assumed), which hemolysis rate [1] is on record?
**A.** below 5%

**Q.** What about the “Act (antibacterial activity)” value [2, 13] of the same compound?
**A.** Bc

**Q.** And the MIC [2, 14]?
**A.** 22 µM and 64 μg/mL

**Q.** What about the MBC [2, 15] of the same compound?
**A.** 128 µg/mL (≈ 44.6 µM)

**Q.** What about the “Act (antibacterial activity)” value [3, 13] of the same compound?
**A.** Bc

**Q.** And the MIC [3, 14]?
**A.** 8 μg/mL and 2 µM

**Q.** What about the MBC [3, 15] of the same compound?
**A.** 16 µg/mL (≈ 5.58 µM)

**Q.** And the “Act (antibacterial activity)” value [4, 13]?
**A.** Bc

**Q.** What about the MIC [4, 14] of the same compound?
**A.** 32 μg/mL and 11 µM

**Q.** What about the MBC [4, 15] of the same compound?
**A.** 64 µg/mL (≈ 22.3 µM)

**Q.** And the MIC ([5]; broth microdilution)?
**A.** 89 µM and 256 μg/mL

**Q.** And the MBC ([5]; subculture on CA-MH agar, 37 °C, 24 h)?
**A.** >512 µg/mL

**Q.** And the “Act (antibacterial activity)” value [6, 13]?
**A.** Bc

**Q.** And the MIC [6, 14]?
**A.** 32 μg/mL and 11 µM

**Q.** And the MBC [6, 15]?
**A.** 128 µg/mL (≈ 44.6 µM)

**Q.** What about the MIC [7] of the same compound?
**A.** >512 μg/mL and >178 µM

**Q.** And the “percentage inhibition of SARS-CoV-2 infection” value [8]?
**A.** 27%

**Q.** What about the “Act (antibacterial activity)” value [9, 13] of the same compound?
**A.** Bs

**Q.** What about the MIC [9, 14] of the same compound?
**A.** 16 μg/mL and 5 µM

**Q.** What about the MBC [9, 15] of the same compound?
**A.** >64 µg/mL

**Q.** And the “carboxyfluorescein leakage, maximum percentage” value [10]?
**A.** 15%

**Q.** What about the “Inhibition (%) at 10 µM” value ([11]; peptide 10 µM) of the same compound?
**A.** 98.05 ± 1.62%

**Q.** And the IC50 [11]?
**A.** 2.4 ± 0.1 µM

**Q.** What about the MIC [12] of the same compound?
**A.** >128 μg/mL and >44 µM
